Inconclusive results and toxic doses are left out. Cut-off read from the data, not from the text of the source: active = T/C of 150% or more; inactive = T/C below 125%.
Test system: L1210 leukemia ip in BDF1 mice, survival T/C
Test: NCI In Vivo Anticancer Drug Screen. Data for tumor model L1210 Leukemia (intraperitoneal) in B6D2F1 (BDF1) mice
Details: endpoint: mean survival time, higher = longer survival
Method in brief: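 Mice bearing the transplanted tumor received compound or vehicle. Survival of the treated group was divided by that of the vehicle-treated control group to give the ratio.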

[1] = dose: 100.0 mg/kg/injection, schedule: Q04DX002 (ip), vehicle: saline with Tween-80
[2] = dose: 200.0 mg/kg/injection, schedule: Q04DX002 (ip), vehicle: saline with Tween-80
[3] = dose: 400.0 mg/kg/injection, schedule: Q04DX002 (ip), vehicle: saline with Tween-80
[4] = dose: 100.0 mg/kg/injection, schedule: Q01DX001 (ip), vehicle: other
[5] = dose: 200.0 mg/kg/injection, schedule: Q01DX001 (ip), vehicle: other
[6] = dose: 100.0 mg/kg/injection, schedule: Q04DX003 (ip), vehicle: saline with Tween-80
[7] = dose: 200.0 mg/kg/injection, schedule: Q04DX003 (ip), vehicle: saline with Tween-80
[8] = dose: 400.0 mg/kg/injection, schedule: Q04DX003 (ip), vehicle: saline with Tween-80
[9] = dose: 100.0 mg/kg/injection, schedule: Q01DX001 (ip), vehicle: carboxymethylcellulose (CMC)
[10] = dose: 200.0 mg/kg/injection, schedule: Q01DX001 (ip), vehicle: carboxymethylcellulose (CMC)
[11] = dose: 400.0 mg/kg/injection, schedule: Q01DX001 (ip), vehicle: carboxymethylcellulose (CMC)
[12] = dose: 100.0 mg/kg/injection, schedule: Q01DX001 (ip), vehicle: Klucel (hydroxypropylcellulose) (HPC)
[13] = dose: 100.0 mg/kg/injection, schedule: Q04DX003 (ip), vehicle: Klucel (hydroxypropylcellulose) (HPC)
[14] = dose: 200.0 mg/kg/injection, schedule: Q01DX001 (ip), vehicle: Klucel (hydroxypropylcellulose) (HPC)
[15] = dose: 200.0 mg/kg/injection, schedule: Q04DX003 (ip), vehicle: Klucel (hydroxypropylcellulose) (HPC)
[16] = dose: 400.0 mg/kg/injection, schedule: Q04DX003 (ip), vehicle: Klucel (hydroxypropylcellulose) (HPC)
[17] = dose: 400.0 mg/kg/injection, schedule: Q01DX001 (ip), vehicle: Klucel (hydroxypropylcellulose) (HPC)
[18] = dose: 100.0 mg/kg/injection, schedule: Q01DX001 (ip), vehicle: saline
[19] = dose: 200.0 mg/kg/injection, schedule: Q01DX001 (ip), vehicle: saline
[20] = dose: 100.0 mg/kg/injection, schedule: Q04DX003 (ip), vehicle: saline
[21] = dose: 200.0 mg/kg/injection, schedule: Q04DX003 (ip), vehicle: saline
[22] = dose: 400.0 mg/kg/injection, schedule: Q04DX003 (ip), vehicle: saline

Measured: T/C

CCOC(=O)/C(=C\c1ccc(N(C)C)cc1)c1nc2ccccc2[nH]1
inactive: [1] 92 % of control | [2] 92 % of control | [3] 104 % of control

CC(=O)C1CCC2C3CCC4CC(O)CCC4(C)C3CCC12C#N (configuration not stated)
inactive: dose: 100.0 mg/kg/injection, schedule: Q01DX009 (sc), vehicle: steriod suspending solution 101 % of control | dose: 100.0 mg/kg/injection, schedule: Q04DX003 (sc), vehicle: steriod suspending solution 93 % of control | dose: 200.0 mg/kg/injection, schedule: Q01DX009 (sc), vehicle: steriod suspending solution 108 % of control | dose: 200.0 mg/kg/injection, schedule: Q04DX003 (sc), vehicle: steriod suspending solution 102 % of control | dose: 400.0 mg/kg/injection, schedule: Q01DX009 (sc), vehicle: steriod suspending solution 108 % of control | dose: 400.0 mg/kg/injection, schedule: Q04DX003 (sc), vehicle: steriod suspending solution 104 % of control

CC(Oc1nc2c(c(=O)n(C)c(=O)n2C)n1C)C1CCCCC1 (configuration not stated)
inactive: dose: 50.0 mg/kg/injection, schedule: Q01DX001 (ip), vehicle: other 95 % of control | [4] 98 % of control | [5] 93 % of control

O=C(Nc1ccc([N+](=O)[O-])cc1)C(c1ccccc1)c1ccccc1
inactive: dose: 100.0 mg/kg/injection, schedule: Q04DX002 (ip), vehicle: gum acacia 100 % of control | dose: 200.0 mg/kg/injection, schedule: Q04DX002 (ip), vehicle: gum acacia 100 % of control | dose: 400.0 mg/kg/injection, schedule: Q04DX002 (ip), vehicle: gum acacia 93 % of control

CCCCNS(=O)(=O)CCCC
inactive: [6] 105 % of control | [7] 101 % of control | [8] 97 % of control

O=C(c1ccc([N+](=O)[O-])cc1)c1ccc([N+](=O)[O-])cc1
inactive: [1] 90 % of control | [2] 90 % of control | [3] 101 % of control

NOCc1ccsn1
inactive: [4] 105 % of control | dose: 100.0 mg/kg/injection, schedule: Q01DX009 (ip), vehicle: sodium bicarbonate 96 % of control | dose: 100.0 mg/kg/injection, schedule: Q04DX003 (ip), vehicle: other 102 % of control | [5] 111 % of control | dose: 200.0 mg/kg/injection, schedule: Q01DX009 (ip), vehicle: sodium bicarbonate 98 % of control | dose: 200.0 mg/kg/injection, schedule: Q04DX003 (ip), vehicle: other 95 % of control | dose: 400.0 mg/kg/injection, schedule: Q01DX001 (ip), vehicle: other 94 % of control

CCC(=O)OC1(c2ccccc2)CCN(CCCc2ccccc2Cl)CC1
inactive: dose: 3.13 mg/kg/injection, schedule: Q04DX002 (ip), vehicle: saline with Tween-80 103 % of control | dose: 6.25 mg/kg/injection, schedule: Q04DX002 (ip), vehicle: saline with Tween-80 106 % of control | dose: 12.5 mg/kg/injection, schedule: Q04DX002 (ip), vehicle: saline with Tween-80 103 % of control | dose: 25.0 mg/kg/injection, schedule: Q04DX002 (ip), vehicle: saline with Tween-80 106 % of control

CCCCCCCCCCCCCCCC(=O)OCCCCCCCCCC
inactive: [6] 100 % of control | [7] 87 % of control | [8] 95 % of control

Nc1nc2c(ncn2-c2cccc(-c3ccccc3)c2)c(=O)[nH]1
inactive: dose: 25.0 mg/kg/injection, schedule: Q04DX003 (ip), vehicle: saline with Tween-80 100 % of control | dose: 50.0 mg/kg/injection, schedule: Q04DX003 (ip), vehicle: saline with Tween-80 102 % of control | [6] 100 % of control | [7] 87 % of control

O=C(/C=C/c1ccc([N+](=O)[O-])cc1)c1ccc(Cl)cc1
inactive: [6] 104 % of control | [7] 94 % of control | [8] 91 % of control

CCS(=O)(=O)c1ccc(NC(=O)OCc2ccccc2)cc1
inactive: [9] 94 % of control | [10] 94 % of control | [11] 92 % of control

Nc1nc(N)c(N)c(Nc2ccc(O)cc2)n1
inactive: dose: 100.0 mg/kg/injection, schedule: Q01DX Z (ip), vehicle: saline 102 % of control

Cc1ccc(SS(=O)(=O)c2ccc(C)cc2)cc1
inactive: [12] 86 % of control | dose: 100.0 mg/kg/injection, schedule: Q01DX009 (ip), vehicle: saline sonified 116 % of control | [13] 114 % of control | [14] 86 % of control | dose: 200.0 mg/kg/injection, schedule: Q01DX009 (ip), vehicle: saline sonified 102 % of control | [15] 101 % of control | dose: 400.0 mg/kg/injection, schedule: Q01DX009 (ip), vehicle: saline sonified 107 % of control | [16] 106 % of control

O=C(O)CC(=O)c1cccc([N+](=O)[O-])c1
inactive: [12] 104 % of control | [14] 97 % of control | [17] 96 % of control

C[C@]12CCC(=O)C[C@H]1CC[C@@H]1[C@@H]2CC[C@@]2(C)[C@H]1CC[C@]2(C)O
inactive: dose: 50.0 mg/kg/injection, schedule: Q01DX Z (sc), vehicle: steriod suspending solution 98 % of control | dose: 100.0 mg/kg/injection, schedule: Q01DX Z (sc), vehicle: steriod suspending solution 98 % of control | dose: 200.0 mg/kg/injection, schedule: Q01DX Z (sc), vehicle: steriod suspending solution 101 % of control | dose: 400.0 mg/kg/injection, schedule: Q01DX Z (sc), vehicle: steriod suspending solution 98 % of control

CC(NC(=O)CNC(=O)CNC(=O)OCc1ccccc1)C(=O)O (configuration not stated)
inactive: [13] 97 % of control | [15] 100 % of control | [16] 91 % of control

O=[N+]([O-])c1ccc(Cl)c2ncccc12
inactive: [13] 102 % of control | [15] 98 % of control | [16] 102 % of control

Cc1ccc(NC(=S)Nc2ccccc2)cc1
inactive: [13] 97 % of control | [15] 107 % of control

OB1OB(OB2OB(O)O2)O1
inactive: dose: 50.0 mg/kg/injection, schedule: Q01DX001 (ip), vehicle: saline 92 % of control | [18] 92 % of control | [19] 108 % of control | dose: 400.0 mg/kg/injection, schedule: Q01DX001 (ip), vehicle: saline 113 % of control

CC(C)N1CCc2cc3c(cc2C1)OCO3
inactive: dose: 5.0 mg/kg/injection, schedule: Q01DX001 (ip), vehicle: saline 101 % of control | dose: 10.0 mg/kg/injection, schedule: Q01DX001 (ip), vehicle: saline 101 % of control | dose: 20.0 mg/kg/injection, schedule: Q01DX001 (ip), vehicle: saline 110 % of control | dose: 40.0 mg/kg/injection, schedule: Q01DX001 (ip), vehicle: saline 104 % of control | dose: 80.0 mg/kg/injection, schedule: Q01DX001 (ip), vehicle: saline 101 % of control

N#CC1C(=O)NC(=O)C(C#N)C12CCCCC2 (configuration not stated)
inactive: [18] 106 % of control | dose: 100.0 mg/kg/injection, schedule: Q01DX009 (ip), vehicle: saline with Tween-80 101 % of control | [19] 106 % of control | dose: 200.0 mg/kg/injection, schedule: Q01DX009 (ip), vehicle: saline with Tween-80 97 % of control

CN1C(C(=O)c2ccc(-c3ccccc3)cc2)C1c1ccccc1 (configuration not stated)
inactive: [12] 93 % of control | [14] 97 % of control | [17] 110 % of control

COC1C(CO)OC(n2cnc3c(=O)[nH]c(N)nc32)C1O (configuration not stated)
inactive: [9] 98 % of control | [10] 104 % of control | [11] 114 % of control

CSCCC(NCc1cc(=O)[nH]c(=O)[nH]1)C(=O)O (configuration not stated)
inactive: [20] 97 % of control | [21] 101 % of control | [22] 95 % of control

CSCCC(NC(=O)CNC(=O)OCc1ccccc1)C(=O)O (configuration not stated)
inactive: [6] 106 % of control | [7] 95 % of control | [8] 107 % of control

NC(=O)Cn1cnc2c(Cl)ncnc21
inactive: [6] 104 % of control | [7] 102 % of control | [8] 120 % of control

OCC(O)c1ccccn1 (configuration not stated)
inactive: [20] 107 % of control | [21] 94 % of control | [22] 94 % of control

O=C(O)c1cc2ccccc2cn1
inactive: dose: 100.0 mg/kg/injection, schedule: Q04DX002 (ip), vehicle: saline 102 % of control | dose: 200.0 mg/kg/injection, schedule: Q04DX002 (ip), vehicle: saline 93 % of control

From PubChem BioAssay AID248 (DTP/NCI, 2004)
